According to patent US11752155B2, “Treatment of autism spectrum disorders, obsessive-compulsive disorder and anxiety disorders” (Rugen Holdings (Cayman) Limited, priority 2016, dated 2023):
pIC50, pKi: −log10 of the molar value. Counter-ions that a name gives are not always drawn. Like-named read-outs stand apart in the source and are kept apart here.

Assays:
[1] = target: native rat brain NR2B receptors (Rattus norvegicus (Rat), UniProt P35439+Q00960); test: NR2B radioligand binding assay in rat brain using [3H] (E)-N1-(2-methoxybenzyl)-cinnamidine; settings: rat brain NR2B receptors; mean of replicates; read-out: Arithmetic Mean Ki
Description: This example describes an NR2B receptor binding assay in rat brain using [^3H] […] The binding assay method was adapted from a previously described cellular human NR1a/NR2B cloned receptor assay (Kiss et al. Neurochem. Internatl. 2005, 46:453-464) to rat brain tissue. This assay serves as a selective measure of NR2B receptor binding activity in native rat brain receptors. Briefly, the brains of male Wistar rats were homogenized (Polytron) before centrifugation at 40,000×g for 15 minutes at 4° C. After 2 washes, the final pellet was homogenized and stored at −80° C. The protein concentration was determined by Bradford assay. [^3H] […] Non-specific binding was assessed in the presence of excess (10 μM) (E)-N1-(2-nethoxybenzyl)-cinnamidine.
Test compounds were solubilized at 10 mM in DMSO. Then the dilutions were performed with a constant solvent concentration (1% DMSO) in the assay. After incubation for 4.5 hours at room temperature, the assays were filtered on GF/3 filters pretreated with 0.3% (v/v) polyethylenimine (PEI) with a Packard system. The experiment was performed in duplicate (n=2).

human NR1/NR2B = human NR1/NR2B (Homo sapiens (Human), UniProt Q05586+Q13224); test: NR2B antagonist activity: calcium influx (Fluo-4) assay in HEK293 cells; type: cell-based
Description: Activation of the NR2A or NR2B subtype of NMDA receptor with glutamate as an agonist and glycine co-agonist on these cells results in calcium influx, which can be monitored with fluorescent indicator Fluo-4.
For experiments, the cells were seeded onto poly-D-lysine-coated 96-well black plates with clear bottom (Corning) at a density of ˜50,000 cells/well. After overnight culture, the growth medium was removed from the wells and the cells were incubated at 37° C. for 60 minutes in Hanks buffer containing 4 μM fluo-4-AM (Invitrogen) and 0.1% bovine serum albumin (BSA). After dye-loading, the cells were washed three times with Hanks buffer and incubated for 10 minutes at room temperature with various concentrations of test compounds prepared in Hanks buffer with 0.1% BSA. The cell plates were placed onto an FDSS Cell fluorescence reader (Hamamatsu). After 20 seconds of reading background fluorescence, agonist glutamate at final 100 µM and co-agonist glycine at final 50 μM were added to the cells to activate the receptor, and the resulting fluorescence changes were recorded and quantified. Based on the changes in fluorescence intensity, the pharmacological effect of test compounds was analyzed and the IC50 values derived from a non-linear least squares fitting of the concentration-dependent response to a standard logistic equation using Prism (Graphpad Software, Inc.): Amplitude=Max Amplitude/(1+(IC50/[antagonist])^n).

[2] = tested on: wild type mice (male NMRI); test: Marble Burying Test in wild type mice; type: in vivo, mouse; settings: Mus musculus, ip, read-out: Percent Change in marbles buried relative to vehicle
Description: Animals. Male NMRI mice (20-30 g body weight) were obtained from Janvier Labs (Le Genest-Saint Isle, France) and allowed to acclimate to the animal facility for at least 5 days. Twelve mice were studied per treatment group.
Compound formulation. The test compounds were prepared in a vehicle of 0.5% DMSO and 4% HP-β-CD, and administered orally (PO) or IP. The test compounds or vehicle were administered 20 minutes before the behavioral test described below. Clobazam (8 mg/kg IP), administered 30 minutes before the test, was used as the positive reference compound.
Clobazam was dispersed in 0.2% hydroxypropylmethylcellulose (HPMC) in physiological saline. Dosing volume was 10 mL/kg.
Testing procedure. The Marble Burying Test was conducted as previously described by Broekkamp et al. (Eur. J. Pharmacol. 1986, 126:223-229). Mice exposed to small novel objects (marbles) will bury them in the sawdust floor covering. Anxiolytics decrease the number of marbles buried at non-sedating doses. Mice were individually placed in transparent plastic cages (33×21×18 cm) with 5 cm of sawdust on the floor and 25 marbles grouped in the center of the cage. The cage was covered with an inverted plastic cage. Each test cage, together with the marbles, was impregnated with mouse odor before-hand by leaving 10 mice in the cage for 15 minutes. These mice then played no further role in the experiment. The number of marbles covered by sawdust (⅔ or more) was counted at the end of the 30-minute test. The test was performed blind (compounds versus vehicle).
Statistical analyses. Data were analyzed by comparing test compound-treated groups with the vehicle control group using the Kruskal-Wallis test followed by post-hoc Mann-Whitney U tests. Data comparing the reference compound with the vehicle were analyzed using the Mann-Whitney U test. A p value<0.05 was considered significant.

[3] = tested on: wild type mice (male C57Bl/6); test: Novelty Phobia Test in wild type mice; type: in vivo, mouse
Description: Animals. Male C57Bl/6 mice (18-30 g body weight; 6-8 weeks of age) were obtained from Slaccas (Shanghai, China) and allowed to acclimate to the animal facility for 7 days. Mice were group housed in plastic cages (no more than 4 animals per cage) on wood shavings with nesting material. All animals had free access to food (M01-F, Slaccas) and water. The animal facility was maintained under artificial lighting between 7:00 AM and 7:00 PM in a controlled ambient temperature of 22-24° C. and relative humidity between 50-60%.
Compound formulation. The test compounds were prepared in a vehicle of DMSO and HP-β-CD, and administered IP or PO. The test compounds or vehicle were administered at various times (10-20 minutes) before the behavioral test described below. Dosing volume was 10 mL/kg.
Testing procedure. The behavioral testing apparatus was a rectangular black Plexiglas, 2-chambered box, with no top or bottom (50 cm long, 26 cm wide and 15 cm tall) and allowed for the simultaneous testing of 2 mice. The box was placed on a laboratory bench. The chambers of the testing box were cleaned and fresh paper chip bedding was added between tests. Mice were brought to the experiment room in their home cages on the day of testing. Behavioral tests were conducted between 10:00 AM and 1:00 PM in dim light. After drug administration, a mouse was placed into a test chamber and allowed to explore for 10 minutes. After this habituation period, a novel object (e.g., a toy ball of 3 cm in diameter with spikes) was introduced to the center of the chamber for 5 minutes. For the entire 15-minute test period, video was recorded for offline analysis with Any-maze Video Tracking software (Stoelting Co., Wood Dale, Ill.). The total distance traveled during the entire 15 minutes and the number of bouts that each mouse touched the novel object during the last 5 minutes were measured.
Statistical analyses. Data are presented as means and SEMs. Data were analyzed using one-way analysis of variance (ANOVA; Prism, GraphPad Software Inc., San Diego, Calif.), followed by the post-hoc Dunnett's test to compare test compound-treated groups with the vehicle control. A p value<0.05 was considered significant.

CYP2D6 = CYP2D6 (Homo sapiens (Human), UniProt P10635); test: CYP P450 enzyme inhibition in pooled human liver microsomes (dextromethorphan probe); type: in vitro ADME; settings: Table 1.4B
Description: Test compound concentration-dependent response studies were performed in triplicate.

hERG channel = hERG channel (Homo sapiens (Human), UniProt Q12809); test: hERG channel inhibition, whole cell patch clamp in HEK293 cells; type: cell-based; settings: for pIC50: Table 1.3B
Description: The assay was performed on hERG channel stably expressed in HEK293 cells. The cells were cultured at 37° C. in a humidified CO2 incubator in the growth medium consisting of DMEM, 10% fetal bovine serum and antibiotics. Prior to the assay, the cells were seeded onto a 12-mm PDL-coated glass coverslip and cultured in a 35-mm Petri dish. After 16 to 40 hours culture, the coverslip was transferred into the chamber of OctaFlow perfusion system (ALA Instrument) and under a constant flow of extracellular solution (140 mM NaCl, 4 mM KCl, 1 mM MgCl2, 2 mM CaCl2, 10 mM HEPES, 10 mM D-glucose, pH 7.35, osmolarity 290). Whole cell patch clamping was performed with a glass micropipette filled with intracellular solution (120 mM KCl, 1.75 mM MgCl2, 5.4 mM CaCl2, 10 mM HEPES, 10 mM EGTA, and 4 mM ATP-K2, pH 7.2, osmolarity 310). Giga-seal was maintained during the test. The voltage control and current measurement were carried out using Axon amplifier 700B, Digidata 1440A and CLAMPEX10 software (Molecular Devices). Whole-cell hERG currents were recorded following the Petroski protocol: the cell was held at −80 mV, and the voltage step jumped from −80 to 30 mV and stay for 2 seconds with a 20-millisecond prepulse at −40 mV. After depolarization, the voltage was decreased to −40 mV and stay for 2 seconds, and returned back to −80 mV. Test compound was applied by quartz capillary tubes tip (200 m inner diameter), and the flow rate was controlled at 2-3 mL/min with OctaFlow perfusion system. Different concentrations of the compound were applied to the cells for 5 minutes and the hERG current was measured three times before, during and after compound treatment. The data were analyzed using Clampfit 10 software (Molecular Devices) to generate IC50 values.

[4] = Table 1.1A, read-out: NR2B IC50
[5] = Table 1.3A, read-out: hNR2B IC50
[6] = Table 1.4A, read-out: NR2B IC50

hERG channel, sequence (Q12809 whole entry): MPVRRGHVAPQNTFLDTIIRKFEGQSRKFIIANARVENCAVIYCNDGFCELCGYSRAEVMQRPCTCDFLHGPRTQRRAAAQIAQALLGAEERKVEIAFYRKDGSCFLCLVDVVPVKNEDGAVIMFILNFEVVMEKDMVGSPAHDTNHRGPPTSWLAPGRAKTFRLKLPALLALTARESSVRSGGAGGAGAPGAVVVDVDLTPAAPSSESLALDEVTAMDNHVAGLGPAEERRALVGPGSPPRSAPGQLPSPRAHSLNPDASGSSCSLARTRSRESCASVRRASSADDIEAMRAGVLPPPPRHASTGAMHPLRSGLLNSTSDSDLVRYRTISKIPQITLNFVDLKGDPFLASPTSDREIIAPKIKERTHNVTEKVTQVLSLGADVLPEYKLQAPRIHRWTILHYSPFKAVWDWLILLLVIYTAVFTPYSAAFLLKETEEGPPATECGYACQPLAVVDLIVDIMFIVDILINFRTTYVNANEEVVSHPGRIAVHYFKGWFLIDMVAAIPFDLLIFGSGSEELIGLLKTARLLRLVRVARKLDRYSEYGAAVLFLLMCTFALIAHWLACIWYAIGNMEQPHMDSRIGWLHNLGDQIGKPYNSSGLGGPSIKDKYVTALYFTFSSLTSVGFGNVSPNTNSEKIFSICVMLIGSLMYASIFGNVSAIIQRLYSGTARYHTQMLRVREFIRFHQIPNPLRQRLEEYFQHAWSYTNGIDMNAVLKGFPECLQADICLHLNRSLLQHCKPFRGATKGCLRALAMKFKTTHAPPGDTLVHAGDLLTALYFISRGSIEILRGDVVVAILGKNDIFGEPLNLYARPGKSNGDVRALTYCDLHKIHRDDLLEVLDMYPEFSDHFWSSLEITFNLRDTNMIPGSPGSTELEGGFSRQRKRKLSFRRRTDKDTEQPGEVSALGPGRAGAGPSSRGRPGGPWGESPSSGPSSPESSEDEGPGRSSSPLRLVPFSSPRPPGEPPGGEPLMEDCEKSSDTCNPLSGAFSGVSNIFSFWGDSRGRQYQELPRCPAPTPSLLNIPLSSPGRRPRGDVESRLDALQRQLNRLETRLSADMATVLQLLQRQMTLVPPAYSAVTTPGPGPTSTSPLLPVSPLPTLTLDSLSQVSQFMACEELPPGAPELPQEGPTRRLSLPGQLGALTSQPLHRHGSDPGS
human NR1/NR2B, sequence (Q13224 27-1484, other chains not shown): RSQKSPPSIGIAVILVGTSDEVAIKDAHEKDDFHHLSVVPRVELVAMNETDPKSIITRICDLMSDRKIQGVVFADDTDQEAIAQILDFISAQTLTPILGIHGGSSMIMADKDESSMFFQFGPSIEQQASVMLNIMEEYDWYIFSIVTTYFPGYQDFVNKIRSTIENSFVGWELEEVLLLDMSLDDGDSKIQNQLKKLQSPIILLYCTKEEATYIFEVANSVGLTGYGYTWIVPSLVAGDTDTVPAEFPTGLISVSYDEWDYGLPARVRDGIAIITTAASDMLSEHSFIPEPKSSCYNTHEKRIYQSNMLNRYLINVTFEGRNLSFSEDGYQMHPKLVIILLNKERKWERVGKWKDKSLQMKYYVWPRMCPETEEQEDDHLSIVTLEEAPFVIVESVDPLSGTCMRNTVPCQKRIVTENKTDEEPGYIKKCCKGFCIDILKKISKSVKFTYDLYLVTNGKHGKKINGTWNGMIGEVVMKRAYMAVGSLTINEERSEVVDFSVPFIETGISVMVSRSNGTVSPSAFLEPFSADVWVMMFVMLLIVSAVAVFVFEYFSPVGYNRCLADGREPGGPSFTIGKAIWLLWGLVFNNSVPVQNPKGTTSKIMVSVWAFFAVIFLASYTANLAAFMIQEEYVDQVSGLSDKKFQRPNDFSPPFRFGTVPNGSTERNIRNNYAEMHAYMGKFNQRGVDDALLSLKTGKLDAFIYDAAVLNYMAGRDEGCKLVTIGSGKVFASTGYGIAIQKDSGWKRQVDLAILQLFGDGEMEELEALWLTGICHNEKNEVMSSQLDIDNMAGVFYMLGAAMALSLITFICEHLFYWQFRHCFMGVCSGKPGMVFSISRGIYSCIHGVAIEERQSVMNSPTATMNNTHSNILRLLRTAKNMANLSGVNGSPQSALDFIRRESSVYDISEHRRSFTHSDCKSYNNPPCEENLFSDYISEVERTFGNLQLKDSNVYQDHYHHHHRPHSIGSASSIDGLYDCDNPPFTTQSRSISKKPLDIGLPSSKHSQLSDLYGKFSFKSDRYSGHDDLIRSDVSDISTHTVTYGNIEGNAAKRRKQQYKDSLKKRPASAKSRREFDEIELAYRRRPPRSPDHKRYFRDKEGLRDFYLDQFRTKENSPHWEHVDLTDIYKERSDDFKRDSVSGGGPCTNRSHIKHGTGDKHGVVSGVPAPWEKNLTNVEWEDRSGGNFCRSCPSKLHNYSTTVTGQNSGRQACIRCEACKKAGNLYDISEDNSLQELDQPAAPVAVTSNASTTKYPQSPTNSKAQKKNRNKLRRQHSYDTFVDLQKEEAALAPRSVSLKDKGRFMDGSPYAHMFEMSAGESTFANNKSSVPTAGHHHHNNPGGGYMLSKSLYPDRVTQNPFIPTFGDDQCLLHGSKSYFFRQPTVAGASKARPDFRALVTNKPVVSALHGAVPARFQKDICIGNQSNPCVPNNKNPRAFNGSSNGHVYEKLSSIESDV
CYP2D6, sequence (P10635 whole entry): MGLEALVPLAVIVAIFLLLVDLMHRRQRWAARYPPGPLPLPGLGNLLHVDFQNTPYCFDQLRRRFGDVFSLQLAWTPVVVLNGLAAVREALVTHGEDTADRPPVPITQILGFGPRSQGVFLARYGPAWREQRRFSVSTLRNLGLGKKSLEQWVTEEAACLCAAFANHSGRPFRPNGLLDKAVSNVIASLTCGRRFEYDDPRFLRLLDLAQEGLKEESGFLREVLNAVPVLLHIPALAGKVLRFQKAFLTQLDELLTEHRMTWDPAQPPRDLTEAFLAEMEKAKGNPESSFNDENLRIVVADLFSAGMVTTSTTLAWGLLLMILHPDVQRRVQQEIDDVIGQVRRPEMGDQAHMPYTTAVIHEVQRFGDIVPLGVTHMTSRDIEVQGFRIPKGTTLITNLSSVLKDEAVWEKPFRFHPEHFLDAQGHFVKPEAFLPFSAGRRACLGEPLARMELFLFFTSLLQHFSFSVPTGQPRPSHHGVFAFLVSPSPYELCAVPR
native rat brain NR2B receptors, sequence (Q00960 27-1482, other chains not shown): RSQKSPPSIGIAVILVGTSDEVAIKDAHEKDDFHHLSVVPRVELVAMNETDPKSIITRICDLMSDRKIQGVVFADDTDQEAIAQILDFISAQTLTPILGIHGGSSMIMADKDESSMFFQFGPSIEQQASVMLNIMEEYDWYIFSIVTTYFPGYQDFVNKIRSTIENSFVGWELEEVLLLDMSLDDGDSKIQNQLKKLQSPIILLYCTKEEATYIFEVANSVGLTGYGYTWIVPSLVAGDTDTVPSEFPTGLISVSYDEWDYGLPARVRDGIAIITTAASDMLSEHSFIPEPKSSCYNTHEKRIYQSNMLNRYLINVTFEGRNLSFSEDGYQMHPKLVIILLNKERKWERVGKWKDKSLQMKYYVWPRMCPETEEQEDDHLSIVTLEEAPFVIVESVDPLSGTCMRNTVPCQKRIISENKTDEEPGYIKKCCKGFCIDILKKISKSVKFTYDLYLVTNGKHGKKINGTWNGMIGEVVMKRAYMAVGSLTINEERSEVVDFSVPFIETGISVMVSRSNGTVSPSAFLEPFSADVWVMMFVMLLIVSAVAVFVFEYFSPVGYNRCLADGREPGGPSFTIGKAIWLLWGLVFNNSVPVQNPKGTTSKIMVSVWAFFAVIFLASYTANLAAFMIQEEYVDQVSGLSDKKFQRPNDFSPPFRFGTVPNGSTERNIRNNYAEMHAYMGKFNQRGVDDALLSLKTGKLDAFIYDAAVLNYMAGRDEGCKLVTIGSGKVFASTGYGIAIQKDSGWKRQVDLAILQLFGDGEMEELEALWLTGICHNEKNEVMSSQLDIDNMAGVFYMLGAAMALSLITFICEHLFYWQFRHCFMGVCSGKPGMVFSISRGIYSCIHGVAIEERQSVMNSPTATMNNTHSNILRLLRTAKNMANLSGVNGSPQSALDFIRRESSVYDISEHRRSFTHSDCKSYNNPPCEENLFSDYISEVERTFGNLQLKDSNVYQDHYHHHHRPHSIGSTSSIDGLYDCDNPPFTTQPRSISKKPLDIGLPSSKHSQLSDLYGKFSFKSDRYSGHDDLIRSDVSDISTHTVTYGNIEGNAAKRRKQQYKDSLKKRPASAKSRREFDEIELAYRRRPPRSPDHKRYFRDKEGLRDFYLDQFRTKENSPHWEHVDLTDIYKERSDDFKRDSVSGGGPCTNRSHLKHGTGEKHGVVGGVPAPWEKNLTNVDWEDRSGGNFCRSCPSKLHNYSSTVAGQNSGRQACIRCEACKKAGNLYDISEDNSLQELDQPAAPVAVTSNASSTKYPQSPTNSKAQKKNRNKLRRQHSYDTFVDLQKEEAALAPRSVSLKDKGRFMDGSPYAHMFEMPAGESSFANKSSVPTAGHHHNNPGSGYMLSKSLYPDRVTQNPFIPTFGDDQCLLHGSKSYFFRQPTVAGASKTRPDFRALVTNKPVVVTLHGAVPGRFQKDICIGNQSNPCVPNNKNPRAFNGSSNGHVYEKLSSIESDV

## FC(F)(F)c1ccc(C(F)(F)CN2CCC(Nc3ncnc4[nH]ccc34)CC2)cn1 [C-127^A′]
[1]
  pKi: 7.50
Human NR1/NR2B; [4]
  pIC50: 7.35
Human NR1/NR2B; [5]
  pIC50: 7.35
Human NR1/NR2B; [6]
  pIC50: 7.35
[2]
  change in vivo at 1 mg/kg: 15%
  change in vivo at 3 mg/kg: -27%
  change in vivo at 10 mg/kg: -98%
[3]; Mus musculus, ip, 0.25 h, IP, 20 mg/kg, pre-test time 15 min, read-out: Percent Change in Novel Object Number of Nose Touches relative to vehicle control
  change in vivo at 20 mg/kg: 120%
[3]; Mus musculus, ip, 0.25 h, IP, pre-test time 15 min, read-out: Percent Change in Novel Object Number of Nose Touches relative to vehicle control
  change in vivo at 30 mg/kg: 160%
[3]; mouse, in vivo
  pattern of the dose-response function for bouts of nose touching: dose-dependent increases

## FC(F)(F)c1ccc(C(F)(F)CN2CCC(Nc3ncnc4[nH]ccc34)CC2)nc1 [C-5^A′]
[1]
  pKi: 7.80
Human NR1/NR2B; [4]
  pIC50: 7.52
Human NR1/NR2B; [5]
  pIC50: 7.52
Human NR1/NR2B; [6]
  pIC50: 7.52
[2]
  change in vivo at 3 mg/kg: 2%
  change in vivo at 10 mg/kg: -50%
[2]; 30 mg/kg
  change in vivo at 30 mg/kg: -98%
[3]; IP (C-11 also PO)
  bouts of nose touching of the novel object, efficacy: not efficacious
[3]; Mus musculus, ip, 10 min, IP, 10 mg/kg, pre-test time 10 min, read-out: Percent Change in Novel Object Number of Nose Touches relative to vehicle control
  change in vivo at 10 mg/kg: 70.8%
[3]; Mus musculus, ip, 10 min, IP, pre-test time 10 min, read-out: Percent Change in Novel Object Number of Nose Touches relative to vehicle control
  change in vivo at 30 mg/kg: 42.4%
[3]; Mus musculus, ip, 10 min, IP, 60 mg/kg, pre-test time 10 min, read-out: Percent Change in Novel Object Number of Nose Touches relative to vehicle control
  change in vivo at 60 mg/kg: -36.9%

## O=C(OC1Cc2ccccc2C1)N1CC[C@H](CNc2ncccn2)C(F)(F)C1 [III-E1-22.1^B′, (R)-2,3-dihydro-1H-inden-2-yl 3,3-difluoro-4-((pyrimidin-2-ylamino)methyl)piperidine-1-carboxylate methanesulfonate]
CYP2D6
  pIC50: < 4.30
hERG channel
  pIC50: 4.46

## O=C(OCc1ccc(F)cc1)N1CC[C@H](CNc2ncccn2)C(F)(F)C1 [E1-22.4^B′, (R)-4-fluorobenzyl 3,3-difluoro-4-((pyrimidin-2-ylamino)methyl)piperidine-1-carboxylate methanesulfonate]
CYP2D6
  pIC50: < 4.30
[2]; 0.3 mg/kg
  change in vivo at 0.3 mg/kg: -6%
[2]; 1.78 mg/kg
  change in vivo at 1.78 mg/kg: -97%
[2]
  change in vivo at 3 mg/kg: -99%
hERG channel
  pIC50: 4.41

## Cc1ccc(COC(=O)N2CC[C@H](CNc3ccccn3)C(F)(F)C2)cc1 [E1-23.2^B′, (R)-4-methylbenzyl 3,3-difluoro-4-((pyridin-2-ylamino)methyl)piperidine-1-carboxylate]
CYP2D6
  pIC50: 4.74
hERG channel
  pIC50: 5.25

## Cc1ccc(COC(=O)N2CC[C@@H](CNc3nccn4cnnc34)C(F)(F)C2)cc1 [E2-1.2^B′]
[1]
  pKi: 7.07
Human NR1/NR2B; Table 1.1B, read-out: NR2B IC50
  pIC50: 6.81
Human NR1/NR2B; Table 1.3B, read-out: NR2B IC50
  pIC50: 6.81
Human NR1/NR2B; Table 1.4B, read-out: NR2B IC50
  pIC50: 6.81
hERG channel; human, HEK293 cells stably expressing hERG channel, pH 7.35, 10 μM
  inhibition at 5 min, 10 µM: 22%

## Cc1ccc(COC(=O)N2CC[C@H](CNc3ncc(C)cn3)C(F)(F)C2)cc1 [E1-22.26^B′, (R)-4-methylbenzyl 3,3-difluoro-4-(((5-methylpyrimidin-2-yl)amino)methyl)piperidine-1-carboxylate mesylate]
[1]
  pKi: 8.47
[2]
  change in vivo at 1 mg/kg: -12%
  change in vivo at 3 mg/kg: -23%
  change in vivo at 10 mg/kg: -96%

## Cc1ccc(COC(=O)N2CC[C@H](CNc3cnc(C#N)cn3)C(F)(F)C2)cc1 [E1-21.30^B′, (R)-4-methylbenzyl 4-(((5-cyanopyrazin-2-yl)amino)methyl)-3,3-difluoropiperidine-1-carboxylate]
[1]
  pKi: 7.51

## Cc1ccc(COC(=O)N2CC[C@H](CNc3ncc(C(F)(F)F)cn3)C(F)(F)C2)cc1 [E1-22.29^B′, (R)-4-methylbenzyl 3,3-difluoro-4-(((5-(trifluoromethyl)pyrimidin-2-yl)amino)methyl)piperidine-1-carboxylate methanesulfonate]
[1]
  pKi: < 6.00

## O=C(OCc1ccc(F)cc1)N1CC[C@H](CNc2ccccn2)C(F)(F)C1 [E1-23.4^B′, (R)-4-fluorobenzyl 3,3-difluoro-4-((pyridin-2-ylamino)methyl)piperidine-1-carboxylate]
[1]
  pKi: 8.11

## Cc1ccc(COC(=O)N2CC[C@H](CNc3ccncn3)C(F)(F)C2)cc1 [E1-37.2^B′, (R)-4-methylbenzyl 3,3-difluoro-4-((pyrimidin-4-ylamino)methyl)piperidine-1-carboxylate methanesulfonate]
CYP2D6
  pIC50: 6.70

## O=C(OCc1ccc(F)cc1)N1CC[C@H](CNc2ccncn2)C(F)(F)C1 [E1-37.4^B′, (R)-4-fluorobenzyl 3,3-difluoro-4-((pyrimidin-4-ylamino)methyl)piperidine-1-carboxylate mesylate]
[1]
  pKi: 8.33

## O=C(OCc1ccc(F)cc1)N1CC[C@H](CNc2cccnn2)C(F)(F)C1 [E1-24.4^B′, (R)-4-fluorobenzyl 3,3-difluoro-4-((pyridazin-3-ylamino)methyl)piperidine-1-carboxylate methanesulfonate]
[1]
  pKi: 8.00
